Patent US20150105252A1, “SUBSTITUTED PYRAZOLES AS HERBICIDES” (E I DU PONT DE NEMOURS AND COMPANY, priority 2013, published 2015)

What was measured:
[1] = system: foxtail, giant; test: Test C postemergence; format: in vivo, Setaria faberii; conditions: for Plant response rating (scale of 0 to 100 where 0 is no effect and 100 is complete control), Foxtail, Giant: Postemergence, 31 g ai/ha, visually evaluated after 13 to 15 days; for Foxtail, Giant plant response rating / Plant response rating, Foxtail, Giant: postemergence; for Foxtail, Giant plant response rating: 62 g ai/ha, scale 0 to 100
Outline: (§1)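 Herbicidal effect is expressed as percent visual control (0–100) judged against untreated plants 13 to 15 days after treatment in the greenhouse. Preemergence pots contained seeds in a soil–sand blend; postemergence plants, 2–18 cm tall, grew in peat-based planting medium.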

[2] = system: waterhemp; test: Test C preemergence; format: in vivo, Amaranthus rudis
Outline: as §1

[3] = system: johnsongrass; test: Test C postemergence; format: in vivo, Sorghum halepense; conditions: for Plant response rating (scale of 0 to 100 where 0 is no effect and 100 is complete control), Johnsongrass: Postemergence, 31 g ai/ha, visually evaluated after 13 to 15 days; for Johnsongrass plant response rating / Plant response rating, Johnsongrass: postemergence; for Johnsongrass plant response rating: 62 g ai/ha, scale 0 to 100
Outline: as §1

[4] = system: foxtail, giant; test: Test A postemergence; format: in vivo, Setaria faberii
Outline: (§2)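 Pre- and postemergence greenhouse test; loam+sand; cpd in non-phytotox. solvent/surfactant; post at 1–2 leaf, 2–10 cm; visual score ~10 d, 0 = none, 100 = complete control.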

[5] = system: foxtail, giant; test: Test C preemergence; format: in vivo, Setaria faberii
Outline: as §1

[6] = system: oat, wild; test: Test C postemergence; format: in vivo, Avena fatua; conditions: for Plant response rating (scale of 0 to 100 where 0 is no effect and 100 is complete control), Oat, Wild: Postemergence, 31 g ai/ha, visually evaluated after 13 to 15 days; for Oat, Wild plant response rating / Plant response rating, Oat, Wild: postemergence; for Oat, Wild plant response rating: 62 g ai/ha, scale 0 to 100
Outline: as §1

[7] = system: morningglory; test: Test A postemergence; format: in vivo, Ipomoea spp.
Outline: as §2

[8] = system: foxtail, giant; test: Test A preemergence; format: in vivo, Setaria faberii; conditions: preemergence
Outline: as §2

[9] = system: waterhemp; test: Test C postemergence; format: in vivo, Amaranthus rudis; conditions: for Waterhemp plant response rating / Plant response rating, Waterhemp: postemergence; for Waterhemp plant response rating: scale 0 to 100
Outline: as §1

[10] = system: galium; test: Test C postemergence; format: in vivo, Galium aparine; conditions: for Plant response rating (scale of 0 to 100 where 0 is no effect and 100 is complete control), Galium: Postemergence, 31 g ai/ha, visually evaluated after 13 to 15 days; for Galium plant response rating / Plant response rating, Galium: postemergence; for Galium plant response rating: 62 g ai/ha, scale 0 to 100
Outline: as §1

[11] = system: crabgrass, large; test: Test C preemergence; format: in vivo, Digitaria sanguinalis
Outline: as §1

[12] = system: chickweed; test: Test C postemergence; format: in vivo, Stellaria media; conditions: for Plant response rating (scale of 0 to 100 where 0 is no effect and 100 is complete control), Chickweed: Postemergence, 31 g ai/ha, visually evaluated after 13 to 15 days; for Chickweed plant response rating / Plant response rating, Chickweed: postemergence; for Chickweed plant response rating: 62 g ai/ha, scale 0 to 100
Outline: as §1

[13] = system: ducksalad; test: Test B flood; format: in vivo, Heteranthera limosa; conditions: 250 g ai/ha, visual rating on 0 to 100 scale (0 no effect, 100 complete control), 13 to 15 days
Outline: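 Paddy-water application: seedlings at 2-leaf stage, flood depth 3 cm maintained for the test duration. Evaluation after 13–15 days in the greenhouse by eye relative to controls; 0–100 scale.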

[14] = 250 g ai/ha, scale 0 to 100 (0 no effect, 100 complete control)
[15] = 125 g ai/ha, scale 0 to 100, 0 no effect, 100 complete control
[16] = preemergence, 31 g ai/ha, visual rating, scale 0 to 100 (0 no effect, 100 complete control), 13 to 15 days
[17] = preemergence, 62 g ai/ha, scale 0 to 100 (0 no effect, 100 complete control), 13 to 15 days
[18] = preemergence, 125 g ai/ha, scale 0 to 100, 0 is no effect, 100 is complete control
[19] = Postemergence, 500 g ai/ha, visual rating after approx. 10 days, 0 to 100 scale (0 no effect, 100 complete control)
[20] = postemergence, 125 g ai/ha, about 10 days, visual rating on 0 to 100 scale (0 no effect, 100 complete control)
[21] = 500 g ai/ha, visual injury after approx. 10 days, 0 to 100 scale (0 no effect, 100 complete control)
[22] = preemergence, 125 g ai/ha, 13 to 15 days, scale 0 to 100, 0 = no effect, 100 = complete control
[23] = preemergence, 250 g ai/ha, scale 0 to 100, 0 is no effect, 100 is complete control
[24] = Postemergence, 500 g ai/ha, 0 to 100 scale (0 no effect, 100 complete control)

CCc1cc(C(=O)NCC(F)(F)F)nn1Cc1nc(C(F)(F)F)nn1C [Compound 107]
Plant response rating (scale of 0 to 100 where 0 is no effect and 100 is complete control), Foxtail, Giant [1]: 10
Foxtail, Giant plant response rating [1]: 15
Plant response rating, Foxtail, Giant [1, 14]: 60
Plant response rating, Foxtail, Giant [1, 15]: 55
Plant response rating (scale of 0 to 100), Waterhemp ([2]; Preemergence, 250 g ai/ha): 100
Waterhemp plant response rating [2, 16]: 100
Waterhemp plant response rating [2, 17]: 100
Waterhemp plant response rating [2, 18]: 100
Plant response rating (scale of 0 to 100 where 0 is no effect and 100 is complete control), Johnsongrass [3]: 0
Johnsongrass plant response rating [3]: 0
Plant response rating, Johnsongrass [3, 14]: 70
Plant response rating, Johnsongrass [3, 15]: 5
Foxtail, Giant plant response rating [4, 19]: 90
Foxtail, Giant plant response rating [4, 20]: 70
Plant response rating (scale of 0 to 100), Foxtail, Giant ([5]; Preemergence, 250 g ai/ha): 100
Foxtail, Giant plant response rating [5, 16]: 100
Foxtail, Giant plant response rating [5, 17]: 100
Foxtail, Giant plant response rating [5, 18]: 100
Plant response rating (scale of 0 to 100 where 0 is no effect and 100 is complete control), Oat, Wild [6]: 5
Oat, Wild plant response rating [6]: 5
Plant response rating, Oat, Wild [6, 14]: 40
Plant response rating, Oat, Wild [6, 15]: 5
Morningglory plant response rating [7, 19]: 100
Morningglory plant response rating [7, 20]: 90
Foxtail, Giant plant response rating ([8]; 125 g ai/ha, visual injury, 0 to 100 scale, approx. 10 days): 100
Foxtail, Giant plant response rating [8, 21]: 100
Plant response rating (scale of 0 to 100 where 0 is no effect and 100 is complete control), Waterhemp ([9]; Postemergence, 31 g ai/ha, visually evaluated after 13 to 15 days): 5
Waterhemp plant response rating ([9]; 62 g ai/ha): 40
Plant response rating, Waterhemp [9, 14]: 80
Plant response rating, Waterhemp [9, 15]: 40
Plant response rating (scale of 0 to 100 where 0 is no effect and 100 is complete control), Galium [10]: 50
Galium plant response rating [10]: 85
Plant response rating, Galium [10, 14]: 90
Plant response rating, Galium [10, 15]: 90
Plant response rating (scale of 0 to 100), Crabgrass, Large ([11]; Preemergence, 250 g ai/ha): 98
Crabgrass, Large plant response rating [11, 16]: 98
Crabgrass, Large plant response rating [11, 17]: 98
Crabgrass, Large plant response rating [11, 18]: 98
Plant response rating (scale of 0 to 100 where 0 is no effect and 100 is complete control), Chickweed [12]: 100
Chickweed plant response rating [12]: 100
Plant response rating, Chickweed [12, 14]: 100
Plant response rating, Chickweed [12, 15]: 100
Plant response rating, Ducksalad [13]: 70

CCCc1cc(C(=O)NC(C)C)nn1Cc1cc(C(F)(F)F)nn1C [Compound 201]
Plant response rating (scale of 0 to 100 where 0 is no effect and 100 is complete control), Foxtail, Giant [1]: 10
Foxtail, Giant plant response rating [1]: 10
Plant response rating, Foxtail, Giant [1, 14]: 85
Plant response rating, Foxtail, Giant [1, 15]: 30
Waterhemp plant response rating [2, 16]: 100
Waterhemp plant response rating [2, 17]: 100
Plant response rating, Waterhemp [2, 22]: 98
Waterhemp plant response rating [2, 23]: 98
Plant response rating (scale of 0 to 100 where 0 is no effect and 100 is complete control), Johnsongrass [3]: 5
Johnsongrass plant response rating [3]: 5
Plant response rating, Johnsongrass [3, 14]: 85
Plant response rating, Johnsongrass [3, 15]: 30
Foxtail, Giant plant response rating [4, 24]: 100
Foxtail, Giant plant response rating [4, 20]: 90
Foxtail, Giant plant response rating [5, 16]: 100
Foxtail, Giant plant response rating [5, 17]: 95
Plant response rating, Foxtail, Giant [5, 22]: 100
Foxtail, Giant plant response rating [5, 23]: 100
Plant response rating (scale of 0 to 100 where 0 is no effect and 100 is complete control), Oat, Wild [6]: 5
Oat, Wild plant response rating [6]: 10
Plant response rating, Oat, Wild [6, 14]: 40
Plant response rating, Oat, Wild [6, 15]: 25
Morningglory plant response rating ([7]; Postemergence, 125 g ai/ha, 0 to 100 scale, 0 no effect, 100 complete control): 90
Morningglory plant response rating [7, 24]: 100
Foxtail, Giant plant response rating (0 to 100 scale) ([8]; 125 g ai/ha, visual injury approx. 10 days after treatment): 100
Foxtail, Giant plant response rating [8, 21]: 100
Plant response rating, Waterhemp [9, 14]: 85
Waterhemp plant response rating [9]: 70
Plant response rating (scale of 0 to 100 where 0 is no effect and 100 is complete control), Galium [10]: 60
Galium plant response rating [10]: 80
Plant response rating, Galium [10, 14]: 95
Plant response rating, Galium [10, 15]: 60
Crabgrass, Large plant response rating [11, 16]: 100
Crabgrass, Large plant response rating [11, 17]: 100
Plant response rating, Crabgrass, Large [11, 22]: 100
Crabgrass, Large plant response rating [11, 23]: 100
Plant response rating (scale of 0 to 100 where 0 is no effect and 100 is complete control), Chickweed [12]: 75
Chickweed plant response rating [12]: 80
Plant response rating, Chickweed [12, 14]: 85
Plant response rating, Chickweed [12, 15]: 85
Plant response rating, Ducksalad [13]: 95
